The record followed here is ChEMBL document CHEMBL1268945, “Sequential cytotoxicity: a theory examined using a series of 3,5-bis(benzylidene)-1-diethylphosphono-4-oxopiperidines and related phosphonic acids” (Bioorg Med Chem Lett, 2010).

Activity calls are given as the source filed them. No cut-off for these calls is given here.

The subject of data set [1] is HL-60. The experiment in a line: Induction of internucleosomal DNA fragmentation in human HL60 cells after 6 hrs. It is filed as functional, cell-based.
In data set [2] the test system is HSC-2. Kind of data set: Selectivity index, ratio of CC50 for normal cells to CC50 for human HSC2 cells. It counts as functional.
Data set [3] deals with HSC-4. Kind of data set: Selectivity index, ratio of CC50 for normal cells to CC50 for human HSC4 cells. It counts as functional.
Data set [4] concerns HSC-2. Kind of data set: Induction of apoptosis in human HSC2 cells assessed as activation of caspase 3 after 6 hrs. It counts as functional, cell-based.
The nature of data set [5]: Cytotoxicity against human HGF cells. It is filed as cell-based.
Data set [6] has as its system HL-60. The experiment in a line: Cytotoxicity against human HL60 cells. It counts as functional.
The subject of data set [7] is HSC-4. The experiment in a line: Cytotoxicity against human HSC4 cells. It counts as functional.
For data set [8], the system named is HL-60. Kind of data set: Induction of apoptosis in human HL60 cells assessed as activation of caspase 3 after 6 hrs. It counts as functional, cell-based.
Data set [9] deals with HL-60. The experiment in a line: Selectivity index, ratio of CC50 for normal cells to CC50 for human HL60 cells. It is filed as functional.
Data set [10] relates to HSC-3. Kind of data set: Cytotoxicity against human HSC3 cells. It is filed as functional.
Data set [11] can be described thus: Cytotoxicity against human HPLF cells. It counts as cell-based.
Data set [12] is described as follows: Cytotoxicity against human HPC cells. It is filed as cell-based.
For data set [13], the system named is HSC-2. Kind of data set: Induction of internucleosomal DNA fragmentation in human HSC2 cells after 6 hrs. It counts as functional, cell-based.
Data set [14] has as its system HSC-2. The experiment in a line: Cytotoxicity against human HSC2 cells. It counts as functional.
For data set [15], the system named is HSC-3. The experiment in a line: Selectivity index, ratio of CC50 for normal cells to CC50 for human HSC3 cells. It counts as functional.
Data set [16] relates to HSC-4. Kind of data set: Induction of internucleosomal DNA fragmentation in human HSC4 cells after 6 hrs. It counts as functional, cell-based.

Take `CCOP(=O)(OCC)N1C/C(=C\c2ccc(OC)cc2)C(=O)/C(=C/c2ccc(OC)cc2)C1`: the outcome in the data set on HL-60 [1] was Active. Moreover, the “Selectivity Index” value is reported as 51 in the data set on HSC-2 [2], 36 in the data set on HSC-4 [3], 25 in the data set with HL-60 [9] and 71 in the data set on HSC-3 [15]. Moreover, the outcome in the data set with HSC-2 [4], in the data set on HSC-2 [13] and with HSC-4 [16] was inactive. Also, the CC50 (in general, the concentration that lowers cell viability or growth by half) in data set [5] came out at 53000 nM; in the data set on HL-60 [6], 1900 nM; in the data set with HSC-4 [7] it was 1300 nM; in the data set on HSC-3 [10], 660 nM; in data set [11], 46000 nM; in data set [12] it was 41000 nM. The same compound gave a cytotoxic concentration (CC50) in the data set on HSC-2 [14] of 920 nM. Besides, the Activity result with HL-60 [8] was “Dose-dependent effect”.
